What was measured:
[1] = test system: Sprague-Dawley rats; assay: Mild hyperuricemia model: 2% oxonic acid on normal salt diet (Example 1); type: in vivo, rat
Method: All studies utilized adult male Sprague-Dawley rats (Simonsen Laboratories, Gilroy Calif.)(200-250 g).
Rats were placed on a normal salt (NaCl 0.26%) diet with or without 2% oxonic acid (Ziegler Bros, Gardners, Pa.) added to the diet and rats were sacrificed at week 7.
Am J Physiol 268:F1164-76, 1995].
(§1) Am J Clin Pathol 1957; 28:152.]. Serum blood urea nitrogen was measured by a standard kit (Sigma, St Louis, Mo.).
(§2) Renal biopsies were fixed in Methyl-Carnoy's, 10% formalin or 100% ethanol and embedded in paraffin. The presence of uric acid crystals was evaluated by staining 4-μm ethanol-fixed sections with de Galantha and modified Von Kossa stains. Kidney tissue from rats with acute uric acid nephropathy, induced with oxonic acid and uric acid administration was used as a positive control [Stavric, B., Johnson, W. J., and Grice, H. C., Uric acid nephropathy: An experimental model, Proc. Soc. Exp. Biol. Med. 130: 512-16 (1969).]. Light microscopy was performed in 4-μm sections of Methyl-Carnoy's fixed tissue stained with periodic acid Schiff (PAS) reagent or with hematoxylin and eosin.

[2] = test system: Sprague-Dawley rats; assay: Renal findings at 11 weeks: immunohistochemistry and BUN (Example 3); type: in vivo, rat
Method: Rats were placed on the low sodium diet with oxonic acid for 7 weeks, and then were matched based on uric acid level and blood pressure in various groups to either receive allopurinol, have the oxonic acid withdrawn from the diet, or continue the oxonic acid/low salt diet. A control group of six rats were placed on the lowsodium diet alone for 11 weeks. All of these rats were sacrificed at week 11.
as §1, §2
Methyl-Carnoy's fixed tissue sections were analyzed by indirect immunoperoxidase [Lombardi, D., Gordon , K. L., Polinsky, P., Suga, S., Schwartz, S. M., and Johnson, R. J. Salt sensitive hypertension develops after transient exposure to angiotensin II. Hypertension 33:1013-1019, 1999] staining with the following primary antibodies: OP199, a goat polyclonal antibody against osteopontin (OPN)(gift of C. Giachelli, Univ of Wash., Seattle); ED-1, a monoclonal antibody to rat monocytes and macrophages (Serotec); goat antihuman type III collagen (Southern Biotechnology Associates Inc, Birminghan Ala.); and anti-renin, a mouse antibody to human renin (Sanofi Recherche, Montpellier, France). Sections were incubated with a secondary antibody followed by horseradish peroxidase-conjugated avidin D (Vector Laboratories, Burlingame, Calif.), diaminobenzidine (Sigma) with or without nickel chloride as a chromogen, and counsterstained with methyl green.
NOS1 was detected on formalin fixed tissue sections with a rabbit anti-rat neuronal nitric oxide synthase (Transduction Laboratories, Lexington, Ky.), followed by a biotinylated secondary antibody, diaminobenzidine with nickel chloride and counterstained with nuclear fast red.
All quantification was performed blinded. The tubular expression of osteopontin (OPN), which is a sensitive marker of tubulointerstitial injury, was calculated as the percent of renal cortex occupied by OPN-positive tubules [Lombardi, D., Gordon, K. L., Polinsky, P., Suga, S., Schwartz, S. M., and Johnson, R. J. Salt sensitive hypertension develops after transient exposure to angiotensin II. Hypertension 33:1013-1019, 1999]. Utilizing computer-assisted image analysis software (Optimas V6.2, Media Cybernetics, Silver Springs, Md.) and digitized images, the percent of area occupied by OPN positive tubules per 4 mm^2 field at a magnification of 50× was measured and the mean percent area calculated for each biopsy. The interstitial deposition of collagen type III was calculated as the % of renal cortex occupied by collagen III, noted by immunostaining, by computer image analysis. The mean number of interstitial macrophages (ED-1+cells) in each biopsy was calculated in a blinded manner by counting the total number of positive interstitial cortical cells in 20 sequentially selected 0.25 mm^2 grids at 200× magnification. Renin expression was quantified by the number of glomeruli with positive staining for juxtaglomerular renin using a minimum of 100 glomeruli in each biopsy as previously described [Eng, E., et al., Renal proliferation and phenotypic changes in rats with two-kidney, one-clip Goldblatt hypertension. […]

For `O=C(O)c1nc(=O)[nH]c(=O)[nH]1` [oxonic acid], the “body weight at the end of the study” value ([1]; 2% oxonic acid diet, normal salt diet, 7 weeks, control 394±18) was 367.6 ± 17 g, the urinary uric acid ([1]; 2% oxonic acid in the diet) was “increased two-fold” and the “special stains for uric acid crystals in kidney” value ([1]; 2% oxonic acid, 7 weeks) was “negative”. The BUN ([2]; OA withdrawal at 7 weeks) was 18.8 ± 0.8 mg/dL, the “ED-1 (macrophages)” value ([2]; OA withdrawal at 7 weeks) was 33.0 ± 1.6 cells/mm2 and the NOS-1 ([2]; OA withdrawal at 7 weeks) was 83.1 ± 10.8 positive cells/100 glomeruli. The OPN ([2]; OA withdrawal at 7 weeks) was 1.08 ± 0.06 % increase, the Renin ([2]; OA withdrawal at 7 weeks) was 50.5 ± 2.1 % positive JGA and the “Type III collagen” value ([2]; OA withdrawal at 7 weeks) was 8.9 ± 1.6 %. For the same compound, the OPN ([2]; low NaCl diet, allopurinol added at 7 weeks, control 0.7 ± 0.08) was 1.33 ± 0.14 % increase, the “Type III collagen” value ([2]; low NaCl diet, allopurinol added at 7 weeks, control 7.2 ± 0.6) was 13.9 ± 0.6 % and the BUN ([2]; low NaCl diet, allopurinol added at 7 weeks, control 16.6 ± 0.9) was 24.1 ± 1.7 mg/dL. The “ED-1 (macrophages)” value ([2]; low NaCl diet, allopurinol added at 7 weeks, control 27.8 ± 1.4) was 36.5 ± 1.4 cells/mm2, the Renin ([2]; low NaCl diet, allopurinol added at 7 weeks, control 41.0 ± 1.9) was 58.4 ± 0.8 % positive JGA and the NOS-1 ([2]; low NaCl diet, allopurinol added at 7 weeks, control 104.4 ± 11.5) was 65.6 ± 7.1 positive cells/100 glomeruli.

Reference: patent publication US7799794B2, “Treatment for cardiovascular disease” (Merck Sharp & Dohme Corp., priority 2000, dated 2010)
